In patent US20120226031A1, “PALMARUMYCIN BASED INHIBITORS OF THIOREDOXIN AND METHODS OF USING SAME” (ARIZONA BOARD OF REGENTS, ACTING ON BEHALF OF THE …, priority 2005, published 2012):
Values after ≈ are worked out from the molar mass of the structure shown. Where two headings read alike, the source gives them in different places.

Assays:
[1] = Stability in ethanol at room temperature; type: physicochemical
From the text: PX-916 was stable as a stock solution in ethanol at room temperature with a half life of >5 days. […] Therefore, for in vitro studies PX-916 was used as a stock solution in ethanol, and for in vivo studies made fresh in pH 4.0 buffer vehicle.

VEGF = test: Tumor VEGF immunohistochemistry in MCF-7 xenografts; type: in vivo, mouse; conditions: five daily doses of 25 mg/kg, 24 hours after last dose
Procedure: (§1) FIG. 5. Inhibition of tumor HIF-1α, VEGF and thioredoxin reductase by repeated administration of PX-916. Female scid mice were implanted 1d previously with a 90-d 17β-estradiol slow release pellet were inoculated s.c. with 10^7 MCF-7 human breast cancer cells. When the tumors were 300 mm^3, vehicle or 25 mg/kg/d PX-916 was given i.v. for five doses. Twenty four hours later, the tumors were removed and stained by immunohistochemistry for HIF-1α and VEGF (A) or assayed for thioredoxin reductase activity (B). Columns mean of four mice, SE. P≦0.05.
(§2) Levels of the HIF-1α transcription factor and its downstream target VEGF are increased by thioredoxin-1 expression. We examined the effect of PX-916 administration on tumor HIF-1α and VEGF levels (FIG. 5A). Twenty-four hours after the last dose of five daily doses of PX-916 of 25 mg/kg, there was a decrease in MCF-7 xenograft staining for both HIF-1α and VEGF. At the same time, levels of tumor thioredoxin reductase activity were decreased by 75% (FIG. 5B).

[2] = tested on: MCF-7 human breast cancer cells; test: MCF-7 breast cancer cell growth inhibition; type: cell-based; conditions: Homo sapiens, MCF7
Procedure: MCF-7 human breast cancer cells were grown in medium containing 1 μM selenium (Se) for 7 days which increased cellular thioredoxin reductase activity by about 5 fold as previously reported.

[3] = Stability in fresh mouse plasma at room temperature; type: in vitro ADME
Procedure: (§3) Two metabolite peaks could be seen at 5 minutes, but were undetectable by 30 minutes.

[4] = biological target: T1, human cytochrome P-450 reductase (Homo sapiens, UniProt P16435); test: Inhibition of human cytochrome P-450 reductase (selectivity); type: biochemical
T1 sequence (P16435 1-677): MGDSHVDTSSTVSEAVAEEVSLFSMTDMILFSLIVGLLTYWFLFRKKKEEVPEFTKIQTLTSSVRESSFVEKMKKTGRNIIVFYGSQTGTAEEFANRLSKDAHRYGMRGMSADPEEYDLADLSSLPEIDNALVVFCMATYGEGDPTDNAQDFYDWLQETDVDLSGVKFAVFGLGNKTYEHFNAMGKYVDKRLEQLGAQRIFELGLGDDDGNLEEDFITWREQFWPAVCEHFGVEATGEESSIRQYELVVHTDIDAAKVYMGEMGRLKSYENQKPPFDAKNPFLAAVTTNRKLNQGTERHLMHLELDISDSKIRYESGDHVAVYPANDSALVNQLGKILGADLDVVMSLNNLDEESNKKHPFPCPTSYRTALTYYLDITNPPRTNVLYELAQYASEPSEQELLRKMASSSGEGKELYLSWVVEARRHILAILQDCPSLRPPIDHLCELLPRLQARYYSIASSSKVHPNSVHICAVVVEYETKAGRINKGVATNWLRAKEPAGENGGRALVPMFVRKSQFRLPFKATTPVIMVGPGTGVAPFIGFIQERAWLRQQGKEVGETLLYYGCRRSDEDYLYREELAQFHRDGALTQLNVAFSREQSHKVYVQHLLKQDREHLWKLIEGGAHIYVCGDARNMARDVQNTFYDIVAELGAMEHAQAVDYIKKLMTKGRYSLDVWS
Procedure: (§4) Based upon the observation that PX-916 was rapidly converted to PX-960 in aqueous solution, the ability of PX-960 to inhibit purified human TR was measured and found to be similar to that of PX-916 (Table 2). PX-916 was a selective inhibitor of human TR compared to two other NADPH dependent reductases with a selectivity of at least 200 for human glutathione reductase and human cytochrome P-450 reductase (Table 3).

[5] = biological target: T2, human cytochrome P-450 reductase (versus human thioredoxin reductase, TR) (Homo sapiens, UniProt P16435); test: as above; type: biochemical; conditions: human
T2 sequence (P16435 1-677): T1 sequence (P16435 1-677)
Procedure: as §4

[6] = tested on: A-673 human rhabdomyosarcoma xenografts; test: Antitumor activity, A-673 rhabdomyosarcoma xenograft; type: in vivo, mouse; design: dose or concentration left out as unconfirmed; conditions: ip
Procedure: FIG. 4. Antitumor activity of PX-916. A. Female beige nude mice were inoculated subcutaneously (s.c.) with 10^7 A-673 rhabdomyosarcoma cells. […] B. Female scid mice were inoculated s.c. with 10^7 SHP-77 human small cell lung cancer cells. When tumors were 130 mm^3 on day 17 (arrow) dosing was begun with (∘) vehicle alone; (▪) PX-916 10 mg/kg i.v. daily for 8 doses; (▴) PX-916 25 mg/kg i.v. daily for 5 doses. C. Female scid mice implanted 1 day previously with a 17-β-estradiol 60 day slow release pellet were inoculated s.c. with 10^7 MCF-7 human breast cancer cells. When tumors were 180 mm^3 on day 8 (arrow) dosing was begun with (∘) vehicle alone; (⋄) PX-916 27.5 mg/kg i.v. daily for 5 doses. In both A and B values are the mean of 8 mice per group and bars are SE.
A single intravenous (i.v.) dose of PX-916 of 25 mg/kg inhibited MCF-7 human tumor xenograft TR up to about 60% at 24 hr and the inhibition was maintained for at least 48 hr (FIG. 3C). […] In this study 3 of eight nice had no histologically detectable tumor when the study was terminated on day 42.

[7] = Toxicity in female scid mice; type: in vivo, mouse
[8] = Plasma levels in mice after i.v. administration; type: in vivo, mouse; design: dose or concentration left out as unconfirmed; conditions: PX-916 i.v. to mice, 5 minutes after administration
Procedure: as §3

HIF-1α = test: Tumor HIF-1α immunohistochemistry in MCF-7 xenografts; type: in vivo, mouse; conditions: five daily doses of 25 mg/kg, 24 hours after last dose
Procedure: as §1, §2

Aqueous solubility = type: physicochemical
[9] = 25 mg/kg i.v. x5, 24 hr after last dose
[10] = 25 mg/kg iv QD × 5, 24 hr after last dose, mean ± SE

NCC(=O)Oc1ccc2c3c(cccc13)OC1(C=CC(=O)c3c(O)cccc31)O2 (stereo not shown) [PX-916, O-glycyl naphthoquinone spiroketal]
half life of stock solution in ethanol ([1]; b145): > 5 days
half-life ([1]; ethanol, b120, read-out: half-life for conversion to PX-960 in ethanol): > 5 days
MCF-7 xenograft staining for VEGF (VEGF): decrease
IC50 ([2]; Table 1, read-out: MCF-7 growth inhibition IC50): 3.1 µM
IC50 ([2]; Table 2, read-out: Inhibition of MCF-7 breast cancer cell growth IC50): 3.1 µM
IC50 ([2]; read-out: IC50 MCF-7 cell growth): 3.1 µM
half-life [3]: < 2 min
concentration increase needed to inhibit cytochrome P-450 reductase [4]: greater than 100 fold
IC50 ([4]; Table 3, read-out: Inhibition IC50, cytochrome P-450 reductase (recombinant)): 29.2 µM
selectivity ratio ([5]; Table 3, read-out: Selectivity for TR vs cytochrome P-450 reductase): 104
selectivity ratio ([5]; read-out: selectivity for human TR vs human cytochrome P-450 reductase): ≥ 200
tumor growth inhibition [6]: 97%
tumor growth rate ([6]; 5 days after dosing): 5±3 mm^3/d
major toxicities observed [7, 9]: neutropenia and thrombocytopenia
plasma liver enzymes [7, 9]: no observable increase
weight loss [7, 9]: no significant weight loss
ALT [7, 10]: 39.8 ± 12.8 U/I
AST [7, 10]: 166.9 ± 29.8 U/I
Hb [7, 10]: 14.9 ± 0.4 g/dL
LY [7, 10]: 0.3 ± 0.1 K/μl
MO [7, 10]: 005 ± 0.01 K/μl
NE [7, 10]: 0.9 ± 0.3 K/μl
PLT [7, 10]: 436 ± 142 K/μl
RBC [7, 10]: 8.9 ± 0.4 M/μl
WB [7, 10]: 1.3 ± 0.6 K/μl
Δbodywt [7, 10]: -0.6 ± 0.3 g
tolerability ([7]; 5 daily doses of 25 mg/kg i.v., female scid mice): tolerated
lethality ([7]; single i.v. dose of 50 mg/kg, female scid mice): lethal
detection of PX-916 in plasma [8]: could not be detected
MCF-7 xenograft staining for HIF-1α (HIF-1α): decrease
apparent maximum solubility in water (Aqueous solubility): around 10 mg
improvement of aqueous solubility vs PX-960 (Aqueous solubility): 1-2 orders of magnitude
solubility (Aqueous solubility; 20% β-cyclodextrin, aqueous with cosolvent or surfactant or cyclodextrin, read-out: solubility with 20% β-cyclodextrin): 2000 µg/mL (≈ 5.14 mM)
solubility (Aqueous solubility; water, read-out: water solubility): 700 µg/mL (≈ 1.8 mM)
